Measurements reported in ChEMBL document CHEMBL5370558, “Modifications of geldanamycin via CuAAC altering affinity to chaperone protein Hsp90 and cytotoxicity” (Eur J Med Chem, 2023).
Starred links: 1 amine or outer side, 2 acyl side, 3 side chain; linkers in the order of their positions; H or OH if unused. Positions of bridges follow the written chain, without caps; N, C: chain ends. Non-standard residues stand in square brackets, D forms with d. Residues, ends and D or L forms follow the SMILES beside them. Chains are numbered I, II in the order given. Actinocin(9to1) = Cc1c2oc3c(C)ccc(C(=O)[*:1])c3nc-2c(C(=O)[*:2])c(N)c1=O; NMeV = CN[C@H](C(=O)O)C(C)C; Sar = CNCC(=O)O

Assays:
PC-3 = assay: Anticancer activity against human PC-3 cells assessed as cell growth inhibition incubated for 72 hrs by SRB assay; format: functional, cell-based
SK-OV-3 = assay: Anticancer activity against human SK-OV-3 cells assessed as cell growth inhibition incubated for 72 hrs by SRB assay; format: functional, cell-based
[1] = Cytotoxicity against human HDF cells assessed as cell growth inhibition incubated for 72 hrs by SRB assay; format: toxicity, cell-based; details: HDF cells (normal human dermal fibroblasts, NHDF)
[2] = Selectivity index, ratio of IC50 for cytotoxicity against human HDF cells to IC50 for anticancer activity against human PC-3 cells; format: toxicity, cell-based; details: HDF cells versus PC-3 cells, read-out: Ratio IC50
[3] = Selectivity index, ratio of IC50 for cytotoxicity against human HDF cells to IC50 for anticancer activity against human SK-OV-3 cells; format: cell-based; details: HDF cells versus SK-OV-3 cells, read-out: Ratio IC50
[4] = Selectivity index, ratio of IC50 for cytotoxicity against human HDF cells to IC50 for anticancer activity against human SK-BR-3 cells; format: toxicity, cell-based; details: HDF cells versus SK-BR-3 cells, read-out: Ratio IC50
SK-BR-3 = assay: Anticancer activity against human SK-BR-3 cells assessed as cell growth inhibition incubated for 72 hrs by SRB assay; format: functional, cell-based

SMILES | IC50 (PC-3; Homo sapiens, PC-3, 72 h) | IC50 (SK-OV-3; Homo sapiens, SK-OV-3, 72 h) | IC50 at 72 h [1] | selectivity ratio [2] | selectivity ratio [3] | selectivity ratio [4] | IC50 (SK-BR-3; Homo sapiens, SK-BR-3, 72 h) | IC50 (PC-3; pc-3) | IC50 (SK-OV-3; sk-ov-3) | IC50 (SK-BR-3; sk-br-3)
CO[C@H]1/C=C\C=C(/C)C(=O)NC2=CC(=O)C(NCc3cn(Cc4ccc([N+](=O)[O-])cc4)nn3)=C(C[C@@H](C)C[C@H](OC)[C@H](O)[C@@H](C)/C=C(\C)[C@@H]1OC(N)=O)C2=O | 690 nM | 740 nM | 780 nM | 1.28 | 1.05 | 1.05 | 740 nM |  |  | 
CO[C@H]1/C=C\C=C(/C)C(=O)NC2=CC(=O)C(NCc3cn(Cc4cccc(C#N)c4)nn3)=C(C[C@@H](C)C[C@H](OC)[C@H](O)[C@@H](C)/C=C(\C)[C@@H]1OC(N)=O)C2=O | 4510 nM | 4600 nM | 7440 nM | 1.65 | 1.62 | 1.65 | 4510 nM |  |  | 
CO[C@H]1/C=C\C=C(/C)C(=O)NC2=CC(=O)C(NCCn3cc(CC(=O)O)nn3)=C(C[C@@H](C)C[C@H](OC)[C@H](O)[C@@H](C)/C=C(\C)[C@@H]1OC(N)=O)C2=O | 2120 nM | 2680 nM | 3880 nM | 1.83 | 1.45 | 1.37 | 2840 nM |  |  | 
CO[C@H]1/C=C\C=C(/C)C(=O)NC2=CC(=O)C(NCc3cn([C@@H]4O[C@H](CO)[C@H](O)[C@H](O)[C@H]4O)nn3)=C(C[C@@H](C)C[C@H](OC)[C@H](O)[C@@H](C)/C=C(\C)[C@@H]1OC(N)=O)C2=O | 540 nM | 530 nM | 990 nM | 1.83 | 1.87 | 1.74 | 570 nM |  |  | 
CO[C@H]1/C=C\C=C(/C)C(=O)NC2=CC(=O)C(NCc3cn(Cc4ccccc4)nn3)=C(C[C@@H](C)C[C@H](OC)[C@H](O)[C@@H](C)/C=C(\C)[C@@H]1OC(N)=O)C2=O | 520 nM | 630 nM | 1280 nM | 2.46 | 2.03 | 2.56 | 500 nM |  |  | 
CO[C@H]1/C=C\C=C(/C)C(=O)NC2=CC(=O)C(NCc3cn(CC4OCCO4)nn3)=C(C[C@@H](C)C[C@H](OC)[C@H](O)[C@@H](C)/C=C(\C)[C@@H]1OC(N)=O)C2=O | 1770 nM | 1730 nM | 3060 nM | 1.73 | 1.77 | 1.71 | 1790 nM |  |  | 
CO[C@H]1/C=C\C=C(/C)C(=O)NC2=CC(=O)C(NCc3cn([C@@H]4O[C@H](CO)[C@@H](O)[C@H](O)[C@H]4NC(C)=O)nn3)=C(C[C@@H](C)C[C@H](OC)[C@H](O)[C@@H](C)/C=C(\C)[C@@H]1OC(N)=O)C2=O | 1840 nM | 1860 nM | 2130 nM | 1.16 | 1.15 | 1.85 | 1750 nM |  |  | 
CO[C@H]1/C=C\C=C(/C)C(=O)NC2=CC(=O)C(NCc3cn([C@@H]4O[C@H](COC(C)=O)[C@H](OC(C)=O)[C@H](OC(C)=O)[C@H]4OC(C)=O)nn3)=C(C[C@@H](C)C[C@H](OC)[C@H](O)[C@@H](C)/C=C(\C)[C@@H]1OC(N)=O)C2=O | 910 nM | 780 nM | 970 nM | 1.07 | 1.24 | 1.29 | 770 nM |  |  | 
Cc1c2oc3c(C)ccc(C(=O)N[C@@H]4C(=O)N[C@H](C(C)C)C(=O)N5CCC[C@H]5C(=O)N(C)CC(=O)N(C)[C@@H](C(C)C)C(=O)O[C@@H]4C)c3nc-2c(C(=O)N[C@@H]2C(=O)N[C@H](C(C)C)C(=O)N3CCC[C@H]3C(=O)N(C)CC(=O)N(C)[C@@H](C(C)C)C(=O)O[C@@H]2C)c(N)c1=O [DACTINOMYCIN] (I: T[dV]P[Sar][NMeV] / II: T[dV]P[Sar][NMeV]; ester I:1-I:C, II:1-II:C; linker I:N-II:N via Actinocin(9to1)) | 710 nM | 620 nM | 1630 nM | 2.3 | 2.63 | 2.4 | 680 nM |  |  | 
CO[C@H]1/C=C\C=C(/C)C(=O)NC2=CC(=O)C(NCc3cn(Cc4ccsc4Br)nn3)=C(C[C@@H](C)C[C@H](OC)[C@H](O)[C@@H](C)/C=C(\C)[C@@H]1OC(N)=O)C2=O | 1130 nM | 1020 nM | 1730 nM | 1.53 | 1.7 | 1.65 | 1050 nM |  |  | 
CO[C@H]1/C=C\C=C(/C)C(=O)NC2=CC(=O)C(NCc3cn(Cc4ccccc4I)nn3)=C(C[C@@H](C)C[C@H](OC)[C@H](O)[C@@H](C)/C=C(\C)[C@@H]1OC(N)=O)C2=O | 410 nM | 390 nM | 970 nM | 2.37 | 2.49 | 2.55 | 380 nM |  |  | 
CCN(CC)CCn1cc(CNC2=C3C[C@@H](C)C[C@H](OC)[C@H](O)[C@@H](C)/C=C(\C)[C@H](OC(N)=O)[C@@H](OC)/C=C\C=C(/C)C(=O)NC(=CC2=O)C3=O)nn1 | 510 nM | 520 nM | 960 nM | 1.88 | 1.85 | 1.63 | 590 nM |  |  | 
COC(=O)C[C@H]1O[C@@H](n2cc(CNC3=C4C[C@@H](C)C[C@H](OC)[C@H](O)[C@@H](C)/C=C(\C)[C@H](OC(N)=O)[C@@H](OC)/C=C\C=C(/C)C(=O)NC(=CC3=O)C4=O)nn2)[C@H](O)[C@@H](O)[C@@H]1O | 1330 nM | 1470 nM | 2190 nM | 1.65 | 1.49 | 1.55 | 1410 nM |  |  | 
CO[C@H]1/C=C\C=C(/C)C(=O)NC2=CC(=O)C(NCc3cn(Cc4ccc(C)cc4)nn3)=C(C[C@@H](C)C[C@H](OC)[C@H](O)[C@@H](C)/C=C(\C)[C@@H]1OC(N)=O)C2=O | 850 nM | 820 nM | 1170 nM | 1.38 | 1.43 | 1.18 | 990 nM |  |  | 
CO[C@H]1/C=C\C=C(/C)C(=O)NC2=CC(=O)C(NCCN=[N+]=[N-])=C(C[C@@H](C)C[C@H](OC)[C@H](O)[C@@H](C)/C=C(\C)[C@@H]1OC(N)=O)C2=O | 910 nM | 950 nM | 2060 nM | 2.26 | 2.17 | 2.19 | 940 nM |  |  | 
CO[C@H]1/C=C\C=C(/C)C(=O)NC2=CC(=O)C(NCc3cn(CC4CCOCC4)nn3)=C(C[C@@H](C)C[C@H](OC)[C@H](O)[C@@H](C)/C=C(\C)[C@@H]1OC(N)=O)C2=O | 970 nM | 920 nM | 1840 nM | 1.9 | 2 | 1.92 | 960 nM |  |  | 
CO[C@H]1/C=C\C=C(/C)C(=O)NC2=CC(=O)C(NCc3cn(C4CCCCCC4)nn3)=C(C[C@@H](C)C[C@H](OC)[C@H](O)[C@@H](C)/C=C(\C)[C@@H]1OC(N)=O)C2=O | 1050 nM | 1120 nM | 1700 nM | 1.62 | 1.52 | 1.65 | 1030 nM |  |  | 
CO[C@H]1/C=C\C=C(/C)C(=O)NC2=CC(=O)C(NCc3cn(Cc4ccc(C(F)(F)F)cc4)nn3)=C(C[C@@H](C)C[C@H](OC)[C@H](O)[C@@H](C)/C=C(\C)[C@@H]1OC(N)=O)C2=O | 800 nM | 910 nM | 1240 nM | 1.55 | 1.36 | 1.57 | 790 nM |  |  | 
CO[C@H]1/C=C\C=C(/C)C(=O)NC2=CC(=O)C(NCc3cn([C@@H]4O[C@H](CO)[C@@H](O[C@@H]5O[C@H](CO)[C@H](O)[C@H](O)[C@H]5O)[C@H](O)[C@H]4O)nn3)=C(C[C@@H](C)C[C@H](OC)[C@H](O)[C@@H](C)/C=C(\C)[C@@H]1OC(N)=O)C2=O | 2830 nM | 2840 nM | 4110 nM | 1.45 | 1.45 | 1.44 | 2850 nM |  |  | 
CO[C@H]1/C=C\C=C(/C)C(=O)NC2=CC(=O)C(NCc3cn(CC=C(C)C)nn3)=C(C[C@@H](C)C[C@H](OC)[C@H](O)[C@@H](C)/C=C(\C)[C@@H]1OC(N)=O)C2=O | 2770 nM | 2160 nM | 3180 nM | 1.15 | 1.47 | 1.57 | 2030 nM |  |  | 
CO[C@H]1/C=C\C=C(/C)C(=O)NC2=CC(=O)C(NCc3cn(Cc4ccc(F)cc4)nn3)=C(C[C@@H](C)C[C@H](OC)[C@H](O)[C@@H](C)/C=C(\C)[C@@H]1OC(N)=O)C2=O | 1580 nM | 1520 nM | 1690 nM | 1.07 | 1.11 | 1.09 | 1550 nM |  |  | 
CO[C@H]1/C=C\C=C(/C)C(=O)NC2=CC(=O)C(NCc3cn(Cc4ccc(Br)cc4)nn3)=C(C[C@@H](C)C[C@H](OC)[C@H](O)[C@@H](C)/C=C(\C)[C@@H]1OC(N)=O)C2=O | 310 nM | 270 nM | 650 nM | 2.1 | 2.41 | 1.76 | 370 nM |  |  | 
COC1=C2C[C@@H](C)C[C@H](OC)[C@H](O)[C@@H](C)/C=C(\C)[C@H](OC(N)=O)[C@@H](OC)/C=C\C=C(/C)C(=O)NC(=CC1=O)C2=O [GELDANAMYCIN] |  |  | 1050 nM |  |  |  |  | 600 nM | 640 nM | 580 nM
